Each structure is given as a SMILES string. pEC50, pIC50, pKi: −log10 of the molar value. Values after ≈ are worked out from the molar mass of the structure shown.

Series [1] deals with T1, C-C chemokine receptor type 4 (Homo sapiens, UniProt P51679).
T1 sequence (P51679 whole entry): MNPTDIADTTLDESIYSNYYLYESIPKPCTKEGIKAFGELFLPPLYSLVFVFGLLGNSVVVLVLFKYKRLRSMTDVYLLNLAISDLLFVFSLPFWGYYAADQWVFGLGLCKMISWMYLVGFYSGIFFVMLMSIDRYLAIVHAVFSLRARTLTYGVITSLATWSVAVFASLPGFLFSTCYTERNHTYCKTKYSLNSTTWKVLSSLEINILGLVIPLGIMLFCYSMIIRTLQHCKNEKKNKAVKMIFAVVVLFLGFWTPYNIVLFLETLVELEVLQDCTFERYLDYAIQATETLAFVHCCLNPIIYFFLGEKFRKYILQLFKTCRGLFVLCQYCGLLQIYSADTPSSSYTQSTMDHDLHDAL
The experiment in a line: Antagonist activity at CCR4 in human PBMC assessed as inhibition of actin polymerization by flow cytometry. As to conditions: read-out: pA2 (converted). On the technique in general: In flow cytometry, cells or beads pass a laser one at a time.

For series [2], the target named is T1, C-C chemokine receptor type 4. The experiment in a line: Displacement of [125I]-TARC from human recombinant CCR4 expressed in CHO cell membranes by scintillation counting method. In general terms: Displacement assays read how much labelled ligand stays bound in the presence of the test substance.
For series [3] the target is unchanged. The series is described as follows: Antagonist activity at human CCR4 expressed in CHO cells by [35S]GTPgammaS assay. Format: functional, cell-based.
A short description of series [4]: Kinetic solubility of the compound by chemiluminescent nitrogen detection assay. Format: physicochemical. As to conditions: read-out: Kinetic_solubility.
Series [5] concerns the target T1, C-C chemokine receptor type 4. The experiment in a line: (§1) Induction of CCR4 internalisation in human HUT78 cells after 30 mins by flow cytometry. Format: functional, cell-based.
Series [6] concerns the target T2, C-C chemokine receptor type 4 (Homo sapiens) (UniProt P51679).
T2 sequence (whole entry): T1 sequence (P51679 whole entry)
Described as §1. In kind it is functional, cell-based.

In series [7] the target is T2, C-C chemokine receptor type 4 (Homo sapiens). The experiment in a line: Induction of CCR4 internalisation in human HUT78 cells at 10 nM after 30 mins by flow cytometry. In kind it is functional, cell-based.
Series [8] in a line: Clearance in rat at 1 mg/kg. Particulars: in vivo. Format: ADME, organism-based.
Series [9] can be described thus: Half life in rat at 1 mg/kg. In kind it is ADME, organism-based. Particulars: in vivo.
Another series deals with Rattus norvegicus. The experiment in a line: Clearance in rat at 1 mg/kg relative to liver blood flow. In kind it is ADME, organism-based. As to conditions: in vivo.
A short description of series [10]: Volume of distribution in rat at 1 mg/kg. In kind it is ADME, organism-based. Particulars: in vivo.
Series [11] in a line: Plasma protein binding in human. As to conditions: read-out: PPB (converted). In kind it is ADME, cell-free.

In the case of `O=C([C@H]1CCCCN1)N1CCN(c2nccc(NCc3ccc(Cl)cc3Cl)n2)CC1`, the Kb in [1] is 174 nM. Also, the negative-log Ki (pKi) in [2] is 8.60. The compound also had a pIC50 in series [3] of 8.10. In addition, the solubility kinetic in series [4] stood at 140 µg/mL (≈ 312 µM).

Take `COc1cc2nc(N3CCC(N(C)C(=O)[C@H]4CCCN4)CC3)nc(Nc3ccc(Cl)cc3F)c2cc1OC`: in series [5], the negative-log EC50 (pEC50) was 6.40.

As for `O=C(C1CCCCC1)N1CCC2(CCN(c3nccc(NCc4ccc(Cl)cc4Cl)n3)CC2)C1`, the pKi in series [2] was 6.20. In addition, the solubility kinetic in series [4] is 3 µg/mL (≈ 5.97 µM).

As for `O=C([C@@H]1CCCCN1)N1CCC2(CCN(c3nccc(NCc4ccc(Cl)cc4Cl)n3)CC2)C1`, in [2], the negative logarithm of the Ki (pKi) was 7.70. In series [4], the solubility kinetic turned out to be 170 µg/mL (≈ 338 µM).

In the case of `Cl.Cl.Clc1ccc(CNc2ccnc(N3CCC4(CCNC4)CC3)n2)c(Cl)c1`, the negative logarithm of the Ki (pKi) in series [2] was 6.50. For the same compound, in series [4], the solubility kinetic is 144 µg/mL.

With `CNCC(=O)N1CCC2(CCN(c3nccc(NCc4ccc(Cl)cc4Cl)n3)CC2)C1.O=C(O)C(F)(F)F.O=C(O)C(F)(F)F`, the pKi in series [2] was 6.90. Also, the solubility kinetic in series [4] was 138 µg/mL.

For the compound `O=C([C@H]1CCCCN1)N1CCC2(CCN(c3nccc(NCc4ccc(Cl)cc4Cl)n3)CC2)C1`, the pKi in series [2] is 7.60. Besides, the solubility kinetic in [4] stood at 172 µg/mL (≈ 342 µM).

In series [5], `Clc1ccc(CNc2ccnc(N3CCC4(CCN(C[C@@H]5CCCN5)C4)CC3)n2)c(Cl)c1` showed a pEC50 of 7.90. This compound also had an Activity in series [6] of 56%. Also, the pKi in series [2] is 8.40. In series [4], the solubility kinetic was 56 µg/mL (≈ 118 µM).

As for `O=C(c1ccccn1)N1CCC2(CCN(c3nccc(NCc4ccc(Cl)cc4Cl)n3)CC2)C1`, the pKi in series [2] is 7.00. Besides, the solubility kinetic in series [4] is 17 µg/mL (≈ 34.2 µM).

Regarding `O=C([C@H]1CCCN1)N1CCC2(CCN(c3nccc(NCc4ccc(Cl)cc4Cl)n3)CC2)C1`, in series [2], the pKi is 7.80. Besides, the solubility kinetic in series [4] came out at 180 µg/mL (≈ 368 µM).

In series [5], `Clc1ccc(CNc2ccnc(N3CCC4(CCN(C[C@H]5CCCN5)C4)CC3)n2)c(Cl)c1` showed a pEC50 of 8.20. Moreover, the Activity in series [6] stood at 64%. For the same compound, in series [2], the pKi was 8.30. Moreover, the solubility kinetic in [4] was found to be 16 µg/mL (≈ 33.7 µM).

For the compound `O=C([C@@H]1CCCN1)N1CCC2(CCN(c3nccc(NCc4ccc(Cl)cc4Cl)n3)CC2)C1`, in series [2], the negative-log Ki (pKi) was 7.00. The solubility kinetic in series [4] worked out at 165 µg/mL (≈ 337 µM).

`C[N+]1(C2CCN(c3ncc(-c4ccc(F)cc4F)c(NCc4ccc(F)cc4F)n3)CC2)CCCCC1` had an Activity in series [7] of 50%.

For `Clc1ccc(CNc2ccnc(N3CCC4(CCN(CC5CCCCN5)C4)CC3)n2)c(Cl)c1` (racemic), the pKi in [2] was 8.60. In addition, the solubility kinetic in series [4] amounted to 182 µg/mL (≈ 372 µM).

The compound `CN(Cc1ccc(Cl)cc1Cl)c1ccnc(N2CCC3(CCN(CC4CCCN4)C3)CC2)n1` (racemic) showed a pEC50 in [5] of 6.80. Moreover, in [6], the Activity was determined as 74%. Also, the Kb in series [1] was 1000 nM. Also, the pKi in [2] was 9.00. Further, the negative logarithm of the IC50 (pIC50) in series [3] is 8.10. Also, in [4], the solubility kinetic came to 141 µg/mL (≈ 288 µM).

Consider `O=C(C1CCCN1)N1CCC2(CCN(c3nccc(NCc4ccc(Cl)cc4Cl)n3)CC2)C1` (racemic), for which the pKi in [2] was 7.60. Further, in [4], the solubility kinetic was 79 µg/mL (≈ 161 µM).

Turning to `O=C(C1CCNC1)N1CCC2(CCN(c3nccc(NCc4ccc(Cl)cc4Cl)n3)CC2)C1.O=C(O)C(F)(F)F` (racemic), the pKi in series [2] was 7.30. In addition, the solubility kinetic in [4] came to 339 µg/mL.

As for `O=C(C1CCCNC1)N1CCC2(CCN(c3nccc(NCc4ccc(Cl)cc4Cl)n3)CC2)C1` (racemic), the pKi in series [2] is 7.30. Further, in [4], the solubility kinetic was 186 µg/mL (≈ 369 µM).

In series [8], `Clc1ccc(CNc2ccnc(N3CCC4(CCN(CC5CCCN5)C4)CC3)n2)c(Cl)c1` (racemic) yielded a clearance of 15 mL/min/kg. Further, the half-life in series [9] was 4 h. The CL in the series on Rattus norvegicus is listed as 18%. Also, the Kb in series [1] was 200 nM. For the same compound, the negative-log Ki (pKi) in [2] is 8.80. In series [10], this compound gave a Vd of 5 L/kg. For the same compound, the fraction unbound in [11] is 0.068. The same compound showed a pIC50 in [3] of 8.10. Further, in [4], the solubility kinetic is 270 µg/mL (≈ 568 µM).

As for `CN(Cc1ccc(Cl)cc1Cl)c1ccnc(N2CCC3(CCN(C(=O)C4CCCN4)C3)CC2)n1` (racemic), in [2], the pKi is 7.60. Besides, the solubility kinetic in [4] came out at 190 µg/mL (≈ 377 µM).

In the case of `Fc1ccc(CNc2ccnc(N3CCC4(CCN(CC5CCCN5)C4)CC3)n2)c(F)c1` (racemic), the pEC50 in series [5] is 7.80. Moreover, the Activity in [6] is 62%. Moreover, the pKi in [2] is 8.50. The pIC50 in series [3] was 8.10. In addition, in series [4], the solubility kinetic was 160 µg/mL (≈ 362 µM).

`O=C(C1CCCN1)N1CCC2(CCN(c3nccc(NCc4ccc(F)cc4F)n3)CC2)C1` (racemic): the pKi in series [2] was 7.60. Further, in [4], the solubility kinetic amounted to 175 µg/mL (≈ 383 µM).

Regarding `O=C(C1COCCN1)N1CCC2(CCN(c3nccc(NCc4ccc(Cl)cc4Cl)n3)CC2)C1` (racemic), the solubility kinetic in series [4] was 233 µg/mL (≈ 461 µM).

In general, pKi refers to −log10 of the Ki, conventionally taken in molar units. The term pIC50 denotes the IC50 on a negative log10 scale, so that one unit is a factor of ten. The pEC50 is the EC50 on a negative log10 scale, so that one unit is a factor of ten. What is called clearance is the rate of elimination divided by the concentration. Lower therefore signals a low capacity for elimination. For orientation: half-life means the time needed for the level to fall by half in the phase considered. Broadly, the Vd is the apparent volume that relates the amount in the body to the concentration in plasma or blood.

Values taken from ChEMBL document CHEMBL3797144, “2,8-Diazaspiro[4.5]decan-8-yl)pyrimidin-4-amine potent CCR4 antagonists capable of inducing receptor endocytosis” (Eur J Med Chem, 2016).
